# Results from patent publication US7371207B2 (Wyeth, priority 2002, dated 2008).
# System: gene expression in the kidney
# Test: GeneChip microarray survey of E2 regulated gene expression, kidney
# Protocol: FIG. 1 depicts a pattern analysis generated by a GeneChip microarray analysis. […] Two hours following the final dose, the mice were euthanized and 13 tissues removed for RNA preparation. Two independent studies were performed, with total RNA pooled from two groups of three animals for each condition. Gene expression was quantified by GeneChip microarrays using murine U74 sub A arrays. Data were analyzed for patterns indicating either ERα or ERβ dependent regulation as shown. […] The number of genes in each tissue that matched the theoretical induction (↑) or repression (↓) patterns for ERα or ERβ are indicated.
# FIGS. 2A-2C show a series of bar graphs showing gene expression levels of known genes regulated in the kidney in an ERα pattern. […] Expression was measured in two independent sets of animals, with two groups of animals for each treatment in each study. A gene name abbreviation is shown above each graph, with the corresponding Unigene designation shown below.
# One week later, the animals were ovariectomized.
# GeneChip—Total RNA was prepared separately from each individual organ by using Trizol (Invitrogen) followed by subsequent repurification on Rneasy columns (Qiagen). In general, two pools of RNA were created using equal amounts of RNA from three mice. For small organs such as pituitary, an equal amount of RNA from six animals was combined.
# Target Preparation and Array Hybridization—Total RNA was used to generate biotin labeled cRNA target as described (8) which was hybridized to the murine MG_U74Av2 probe arrays (Affymetrix, Santa Clara, Calif.) for 16 h at 45° C. Eleven biotin-labeled cRNAs at defined concentration were spiked into each hybridization and used to convert average difference values to frequencies expressed as parts per million.
# The resulting data set was queried for genes whose regulation was dependent on ERα or ERβ.
smiles,measurement,setting,value
"C[C@]12CC[C@@H]3c4ccc(O)cc4CC[C@H]3[C@@H]1CC[C@@H]2O [E2, 17β-estradiol]","E2 Expr (/evansm/Kidney, mouse/Study 1, U74v2/WT E2 kidney (81036))","101979_at, AF055638, growth arrest and DNA-damage-inducible 45 gamma",42
same,"E2 Expr (/evansm/Kidney, mouse/Study 1, U74v2/WT E2 kidney (81036))","102693_f_at, J00389, kallikrein 13, kallikrein 26",86
same,"E2 Expr (/evansm/Kidney, mouse/Study 1, U74v2/WT E2 kidney (81036))","102788_s_at, U70132, paired-like homeodomain transcription factor 2",23
same,"E2 Expr (/evansm/Kidney, mouse/Study 1, U74v2/WT E2 kidney (81036))","103048_at, M12731, neuroblastoma myc-related oncogene 1",39
same,"E2 Expr (/evansm/Kidney, mouse/Study 1, U74v2/WT E2 kidney (81036))","103556_at, AI840158, angiopoletin-like 2",24
same,"E2 Expr (/evansm/Kidney, mouse/Study 1, U74v2/WT E2 kidney (81036))","103729_at, M36775, laminin, alpha 1",17
same,"E2 Expr (/evansm/Kidney, mouse/Study 1, U74v2/WT E2 kidney (81036))","103739_at, AW230977, RIKEN cDNA 1110017N23 gene",33
same,"E2 Expr (/evansm/Kidney, mouse/Study 1, U74v2/WT E2 kidney (81036))","104221_at, AB017189, solute carrier family 7 (cationic amino acid transporter, y+ system), member 5",61
same,"E2 Expr (/evansm/Kidney, mouse/Study 1, U74v2/WT E2 kidney (81036))","104477_at, AW047643, Mm.29940",15
same,"E2 Expr (/evansm/Kidney, mouse/Study 1, U74v2/WT E2 kidney (81036))","104495_f_at, Y00500, kallikrein 5",115
same,"E2 Expr (/evansm/Kidney, mouse/Study 1, U74v2/WT E2 kidney (81036))","104497_f_at, X03994, kallikrein 8",53
same,"E2 Expr (/evansm/Kidney, mouse/Study 1, U74v2/WT E2 kidney (81036))","104550_at, AW123273, ?CYP2S1 Cytochrome P450",22
same,"E2 Expr (/evansm/Kidney, mouse/Study 1, U74v2/WT E2 kidney (81036))","104776_at, AA600617, Mm.33238",4
same,"E2 Expr (/evansm/Kidney, mouse/Study 1, U74v2/WT E2 kidney (81036))","104880_at, AI843154, Mm.33730",2
same,"E2 Expr (/evansm/Kidney, mouse/Study 1, U74v2/WT E2 kidney (81036))","105737_at, AI851277, Mm.39735",8
same,"E2 Expr (/evansm/Kidney, mouse/Study 1, U74v2/WT E2 kidney (81036))","106195_at, AI851948, Mm.22808",8
same,"E2 Expr (/evansm/Kidney, mouse/Study 1, U74v2/WT E2 kidney (81036))","107993_at, AI847249, Mm.27680",9
same,"E2 Expr (/evansm/Kidney, mouse/Study 1, U74v2/WT E2 kidney (81036))","108265_at, AW120464, Mm.54158",12
same,"E2 Expr (/evansm/Kidney, mouse/Study 1, U74v2/WT E2 kidney (81036))","108749_at, AA611885, Mm.23047",34
same,"E2 Expr (/evansm/Kidney, mouse/Study 1, U74v2/WT E2 kidney (81036))","108851_at, AW125899, Ras-like protein",10
same,"E2 Expr (/evansm/Kidney, mouse/Study 1, U74v2/WT E2 kidney (81036))","109176_at, AI846059, RAI17 Retinoic acid Induced 17",79
same,"E2 Expr (/evansm/Kidney, mouse/Study 1, U74v2/WT E2 kidney (81036))","110591_at, AA270831, SH3 domain protien D19",23
same,"E2 Expr (/evansm/Kidney, mouse/Study 1, U74v2/WT E2 kidney (81036))","110767_r_at, AA959550, vascular endothelial growth factor",37
same,"E2 Expr (/evansm/Kidney, mouse/Study 1, U74v2/WT E2 kidney (81036))","110850_at, AA959574, NRIP1 Nuclear receptor interacting protein 1, RIP140",76
same,"E2 Expr (/evansm/Kidney, mouse/Study 1, U74v2/WT E2 kidney (81036))","111046_r_at, AI957367, 17b dehydrogenase A homolog",17
same,"E2 Expr (/evansm/Kidney, mouse/Study 1, U74v2/WT E2 kidney (81036))","113125_at, AI851671, signal transducer and activator of transcription 5B",31
same,"E2 Expr (/evansm/Kidney, mouse/Study 1, U74v2/WT E2 kidney (81036))","114903_at, AI447633, Mm.26357",96
same,"E2 Expr (/evansm/Kidney, mouse/Study 1, U74v2/WT E2 kidney (81036))","116273_at, AW123862, Mm.31953",7
same,"E2 Expr (/evansm/Kidney, mouse/Study 1, U74v2/WT E2 kidney (81036))","117208_at, AI838208, RIKEN cDNA 1110003O08 gene",37
same,"E2 Expr (/evansm/Kidney, mouse/Study 1, U74v2/WT E2 kidney (81036))","129147_r_at, AI931796, similar to TYROSINE-PROTEIN KINASE RECEPTOR TIE-1 PRECURSOR",6
same,"E2 Expr (/evansm/Kidney, mouse/Study 1, U74v2/WT E2 kidney (81036))","131149_at, AW214502, RIKEN cDNA 5033417D07 gene",7
same,"E2 Expr (/evansm/Kidney, mouse/Study 1, U74v2/WT E2 kidney (81036))","131226_at, AI842542, Mm.23157",8
same,"E2 Expr (/evansm/Kidney, mouse/Study 1, U74v2/WT E2 kidney (81036))","132403_at, AI788603, similar to TSC1_RAT HAMARTIN (TUBEROUS SCLEROSIS 1 PROTEIN HOMOLOG)",19
same,"E2 Expr (/evansm/Kidney, mouse/Study 1, U74v2/WT E2 kidney (81036))","133139_at, AW122295, regulator of G-protein signaling 4",4
same,"E2 Expr (/evansm/Kidney, mouse/Study 1, U74v2/WT E2 kidney (81036))","133672_at, AI451032, Mm.32389",11
same,"E2 Expr (/evansm/Kidney, mouse/Study 1, U74v2/WT E2 kidney (81036))","134303_at, AI553493, Mm.35319",11
same,"E2 Expr (/evansm/Kidney, mouse/Study 1, U74v2/WT E2 kidney (81036))","136270_at, AI854101, Highly similar to CRFB MOUSE CORTICOTROPIN-RELEASING FACTOR BINDING PROTEIN PRECURSOR",12
same,"E2 Expr (/evansm/Kidney, mouse/Study 1, U74v2/WT E2 kidney (81036))","137525_at, AI098139, Mm.38027",4
same,"E2 Expr (/evansm/Kidney, mouse/Study 1, U74v2/WT E2 kidney (81036))","139531_at, AW120795, Mm.45188",40
same,"E2 Expr (/evansm/Kidney, mouse/Study 1, U74v2/WT E2 kidney (81036))","162645_at, AI851427, protein kinase, cAMP dependent regulatory, type II beta",11
same,"E2 Expr (/evansm/Kidney, mouse/Study 1, U74v2/WT E2 kidney (81036))","162964_at, AI854153, regulator of G-protein signaling 4",11
same,"E2 Expr (/evansm/Kidney, mouse/Study 1, U74v2/WT E2 kidney (81036))","162969_at, AW123298, Edil3 EGF-like repeats and discordin I-like domains 3",34
same,"E2 Expr (/evansm/Kidney, mouse/Study 1, U74v2/WT E2 kidney (81036))","162976_at, AI838662, RIKEN cDNA 2700007F12 gene",10
same,"E2 Expr (/evansm/Kidney, mouse/Study 1, U74v2/WT E2 kidney (81036))","163186_at, AI852882, RIKEN cDNA 2610510B01 gene",61
same,"E2 Expr (/evansm/Kidney, mouse/Study 1, U74v2/WT E2 kidney (81036))","163224_at, AI843147, IGSF1 Immunoglobulin superfamily, member 1",27
same,"E2 Expr (/evansm/Kidney, mouse/Study 1, U74v2/WT E2 kidney (81036))","163370_at, AI591488, Osbpl3 Oxysterol binding protien-like 3",10
same,"E2 Expr (/evansm/Kidney, mouse/Study 1, U74v2/WT E2 kidney (81036))","163941_at, AI646761, RIKEN cDNA 1110018J23 gene",71
same,"E2 Expr (/evansm/Kidney, mouse/Study 1, U74v2/WT E2 kidney (81036))","164051_at, AV359458, Mm.17850",195
same,"E2 Expr (/evansm/Kidney, mouse/Study 1, U74v2/WT E2 kidney (81036))","164520_f_at, AV302474, Tmprss2 Transmembrane protease, serine 2",6
same,"E2 Expr (/evansm/Kidney, mouse/Study 1, U74v2/WT E2 kidney (81036))","165032_i_at, AV365688, RIKEN cDNA 4933429H19 gene",42
same,"E2 Expr (/evansm/Kidney, mouse/Study 1, U74v2/WT E2 kidney (81036))","165248_f_at, AV035328, placental lactogen 2",38
same,"E2 Expr (/evansm/Kidney, mouse/Study 1, U74v2/WT E2 kidney (81036))","165569_at, AI847273, Mm.22305",5
same,"E2 Expr (/evansm/Kidney, mouse/Study 1, U74v2/WT E2 kidney (81036))","165678_i_at, AI482191, Mm.33178",11
same,"E2 Expr (/evansm/Kidney, mouse/Study 1, U74v2/WT E2 kidney (81036))","165710_at, AA815844, sodium channel, nonvoltage-gated 1 gamma",9
same,"E2 Expr (/evansm/Kidney, mouse/Study 1, U74v2/WT E2 kidney (81036))","165772_at, AI851899, RIKEN cDNA 0610039J01 gene",29
same,"E2 Expr (/evansm/Kidney, mouse/Study 1, U74v2/WT E2 kidney (81036))","165866_f_at, AV291803, ribosomal protein L12",40
same,"E2 Expr (/evansm/Kidney, mouse/Study 1, U74v2/WT E2 kidney (81036))","166021_at, AI481830, Mm.49448",12
same,"E2 Expr (/evansm/Kidney, mouse/Study 1, U74v2/WT E2 kidney (81036))","166843_at, AI851523, Mm.200318",174
same,"E2 Expr (/evansm/Kidney, mouse/Study 1, U74v2/WT E2 kidney (81036))","166849_at, AI853080, Mm.40718",16
same,"E2 Expr (/evansm/Kidney, mouse/Study 1, U74v2/WT E2 kidney (81036))","167023_f_at, AV016619, biglycan",3
same,"E2 Expr (/evansm/Kidney, mouse/Study 1, U74v2/WT E2 kidney (81036))","168876_f_at, AV044014, kallikrein 21",75
same,"E2 Expr (/evansm/Kidney, mouse/Study 1, U74v2/WT E2 kidney (81036))","169068_i_at, AV206066, RIKEN cDNA 4930434J08 gene",2
same,"E2 Expr (/evansm/Kidney, mouse/Study 1, U74v2/WT E2 kidney (81036))","170686_f_at, AV362687, Mm.89845",58
same,"E2 Expr (/evansm/Kidney, mouse/Study 1, U74v2/WT E2 kidney (81036))","170896_at, AV066592, Immune associated nucleotide 4",3
same,"E2 Expr (/evansm/Kidney, mouse/Study 1, U74v2/WT E2 kidney (81036))","171390_i_at, AV299689, Mm.21070",3
same,ABCC3 expression in kidney,mRNA level,induced mRNA levels
same,NTT73 expression in kidney,mRNA level,increased mRNA levels
same,CIS2 expression in kidney,"mouse, in vivo",induction
same,COR1 (RDC1) expression in kidney,"mouse, in vivo",induced expression
same,CYP27B1 expression in kidney,"mouse, in vivo",induction
same,ELF3 expression in kidney,"mouse, in vivo",induced expression
same,GNBP3 expression in kidney,"mouse, in vivo",induced expression
same,PHD2 expression in kidney,"mouse, in vivo",induced expression
same,RGS3 expression in kidney,"mouse, in vivo",induced expression
same,STAT5A expression in kidney,"mouse, in vivo",induced expression
same,STAT5B expression in kidney,"mouse, in vivo",induced expression
